According to patent US8895579B2, “Heterotricyclic AMPA receptor antagonists for treatment of epilepsy, pain, and other neurological disorders and diseases” (Northwestern University, priority 2010, dated 2014):
Entries after “also recorded” stand apart in the source; their conditions may differ.

Columns and labels:
[1] = system: mice; details: Ikoma et al., 2008; Oikawa et al., 2009 and unpublished observations; cited from earlier work
[2] = system: AMPA receptor-mediated EPSCs in primary hippocampal neurons; assay: AMPA receptor EPSC charge transfer during spontaneous synaptic bursts, whole-cell voltage clamp, cultured hippocampal neurons; format: cell-based; details: 30 μM; for charge transfer during bursts of AMPA receptor-mediated synaptic events as a percent of the charge transfer during the control period: voltage clamped at −70 mV
Procedure: (§1) Experiments involving primary hippocampal neurons were carried out as described previously (Vivithanaporn et al., 2007). Dissociated neurons were cultured from E18 prenatal hippocampi and were used for analysis from between 17 and 28 days in vitro. The extracellular solution was the same as used for recombinant receptor analysis, while the internal solution for voltage clamp recordings contained (in mM) 95 CsF, 25 CsCl, 10 Cs-HEPES, 10 EGTA, 2 NaCl, 2 Mg-ATP, 10 QX-314, 5 TEA. and 5 4-AP (pH 7.3) and the internal solution for current clamp recordings contained (in mM) 120 KMeSO4, 5 KCl, 5 NaCl, 1 MgCl2, 11 Na-HEPES, 10 phosphocreatine, 4 Na-ATP, and 0.3 Na-GTP (pH 7.0). Borosilicate patch electrodes were pulled and fire polished to 3-5 MΩ resistance. Both whole cell current clamp and voltage clamp recordings were performed using an Axopatch 200B amplifier (MDS, Sunnyvale, Calif.) and filtered at 20 kHz. Gigaohm seals were established in voltage clamp mode and, after membrane rupture, the recordings were carried out either in voltage clamp (clamped at Vm=−70 mV) with a […] series resistance, which was compensated to ˜60%, or in current clamp mode ([…]) with the bridge balance was corrected and pipette resistance neutralized. In vitro status epilepticus (SE) was induced as described previously (Deshpande et al., 2007; Pal et al., 1999) and action potentials were recorded in current clamp mode. Briefly for in vitro SE, magnesium-containing external solution was exchanged for external solution without magnesium and supplemented with 2 μM glycine. This solution exchange produced a period of rapid depolarization and increased AP firing, followed by a period of channel inactivation and reduced AP firing. After channel inactivation, neurons characteristically would hyperpolarize to hold at a membrane voltage (Vm) which was depolarized relative to control Vm, with an increase in AP firing frequency. […] External solutions were bath-applied at a flow rate of 1.5-2 ml/minute. After recording a basal control period, IKM compounds were applied for five minutes (10 minutes for in vitro SE experiments) and changes in excitatory post-synaptic current (EPSC) charge transfer or action potential (AP) frequency were analyzed during the last two minutes of IKM application.
We first measured the actions of the IKM compounds on the charge transfer during spontaneously occurring, polysynaptic bursts of AMPA receptor excitatory post-synaptic currents (EPSCs) in cultured hippocampal neurons (recorded in the presence of bicuculline methiodide and picrotoxin to inhibit GABAA receptors and D-APV to inhibit NMDA receptors). […] IKM-159 had the greatest inhibitory effect at a fixed concentration of 30 μM, producing a reduction in charge transfer of 65±5% (n=6, p<0.01). […] Despite the polar chemical nature of the compounds, recoveries to basal EPSC charge transfers were minimal.

[3] = system: primary hippocampal neurons; assay: Spontaneous action potential firing, current clamp, cultured hippocampal neurons; format: cell-based; details: 20 μM
Procedure: as §1
Effects of IKM-159 on neuronal excitability. […] To determine if altered neuronal excitability could contribute to this behavioral phenotype, we examined the effect of IKM-86 and IKM-159 on action potential firing in cultured hippocampal neurons. Spontaneous action potentials were recorded in current-clamp mode before, during and after application of 20 μM IKM-86 and IKM-159. […]

[4] = target: T1, recombinant homomeric GluA4 AMPA receptor (Rattus norvegicus, UniProt P19493); assay: Whole-cell patch clamp of recombinant GluA4 receptors in HEK293-T/17 cells; format: cell-based; details: for remaining activity at 30 µM: HEK293T/17, read-out: GluA4 peak current as percent of control amplitude; for inhibition at 30 µM: HEK293T/17, read-out: reduction from control GluA4 peak glutamate current amplitude (percent inhibition)
T1 construct: expressed in transfected cells; host or cells: HEK293-T/17 (CRL-11268)
Procedure: Cell Culture and Transfection. Human embryonic kidney cells expressing T-antigen, clone 17 (HEK293-T/17) (CRL-11268) were cultured at 37° C. with 5% CO2 in DMEM, including 100 μg/mL penicillin, 100 μg/mL streptomycin, and 10% heat-inactivated fetal bovine serum. Cells were split twice per week. For transfection, HEK293-T/17 cells were plated at 3×10^4 cells/cm^2 for pharmacology experiments and 5×10^3 cells/cm^2 for physiology experiments in fresh medium 24 h prior to transfection. Cells were transfected with AMPA or KA receptor plasmid cDNAs using Mirus Trans-IT transfection reagent (Minus Bio Corporation, Madison, Wis.) at a ratio of 1 μg cDNA: 3 μL Trans-1T reagent and maintained in transfection medium overnight followed by a media change the next day. Transfected cells were maintained in this medium until the experiment was conducted (48-72 h total post transfection).
Electrophysiology. For analysis of recombinant receptors, HEK293-T/17 cells were co-transfected with 0.2 μg of iGluR cDNA and 0.05 μg of eGFP. For heterologous GluA1/GluA2 receptors, the GluA1:GluA2 cDNA ratio was 1:6. Two to three days post-transfection, eGFP-expressing cells were lifted from the cover slip and voltage clamped in whole cell mode. The internal solution contained (in mM) 30 CsF, 110 CsCl, 10 HEPES, 4 NaCl, 5 EGTA and 0.5 CaCl2 (pH 7.3), while the extracellular solution contained (in mM) 140 NaCl, 10 glucose, 10 Cs-HEPES, 3 KCl, 2 CaCl2 and 1 MgCl2 (pH 7.3). Borosilicate patch electrodes were pulled and fire polished to 2-3 MO resistance. Lifted cells were maintained in a laminar stream of extracellular solution from a triple-barreled flow pipe, which was rapidly translated using a piezoceramic bimorph for fast application of glutamate or kainate alone or in combination with various antagonists (the 10-90% rise time of glutamate-evoked currents was ˜1 ms). IKM compounds were applied for three minutes with analysis performed on the final one minute of drug application.
Statistical analysis. At least three separate experiments were performed for each assay. For data involving three or more groups, a one-way analysis of variance (ANOVA) was performed with a Tukey-Kramer post hoc test for comparison amongst the groups. For data involving two groups, an unpaired student's t-test was performed; if the standard deviations between the two groups were statistically significant, a Welsh correction was added. If the data involving three or more groups or data involving two groups where multiple treatments were performed on the same sample, a repeated measures ANOVA and paired t-test were used, respectively, for analysis of significance. Dose-inhibition response curves were fitted, with the maximum value constrained to 100 and the minimum value constrained to values greater than or equal to zero, using the following equation in order to calculate the IC50 values: Response=minimum+(maximum−minimum)/(1+(IC50^hill slope/dose^hillslope)) All calculations for statistical analysis were carried out with Graphpad Prism4 software (La Jolla, Calif.). Data are presented as mean±S.E.M. with statistical significance set at p<0.05.

[5] = system: AMPA receptors; details: cited from earlier work; for concentration range inhibiting AMPA receptors: Bleakman et al., 1996
[6] = system: cultured hippocampal neurons; assay: Whole-cell current elicited in cultured hippocampal neurons; format: cell-based; details: 30 μM; GABAA and NMDA receptor antagonists present
Procedure: Experiments involving primary hippocampal neurons were carried out as described previously (Vivithanaporn et al., 2007). Dissociated neurons were cultured from E18 prenatal hippocampi and were used for analysis from between 17 and 28 days in vitro. The extracellular solution was the same as used for recombinant receptor analysis, while the internal solution for voltage clamp recordings contained (in mM) 95 CsF, 25 CsCl, 10 Cs-HEPES, 10 EGTA, 2 NaCl, 2 Mg-ATP, 10 QX-314, 5 TEA. and 5 4-AP (pH 7.3) and the internal solution for current clamp recordings contained (in mM) 120 KMeSO4, 5 KCl, 5 NaCl, 1 MgCl2, 11 Na-HEPES, 10 phosphocreatine, 4 Na-ATP, and 0.3 Na-GTP (pH 7.0). Borosilicate patch electrodes were pulled and fire polished to 3-5 MΩ resistance. Both whole cell current clamp and voltage clamp recordings were performed using an Axopatch 200B amplifier (MDS, Sunnyvale, Calif.) and filtered at 20 kHz. […] In vitro status epilepticus (SE) was induced as described previously (Deshpande et al., 2007; Pal et al., 1999) and action potentials were recorded in current clamp mode. […] After recording a basal control period, IKM compounds were applied for five minutes (10 minutes for in vitro SE experiments) and changes in excitatory post-synaptic current (EPSC) charge transfer or action potential (AP) frequency were analyzed during the last two minutes of IKM application. […]

[7] = system: primary hippocampal neurons; assay: In vitro model of status epilepticus (Mg2+ removal, 2 μM glycine), action potential firing in hippocampal neurons; format: cell-based; details: 1 μM; SE 2.0±0.3 Hz
Procedure: as §1
Several AMPA receptor selective antagonists reduce neuronal hyperactivity in both acute brain slice preparations and in in vitro models of epilepsy (Grasso et al., 1999; Szabados et al., 2001). […] We therefore tested the efficacy of IKM-159 in reducing the hyperactive neuronal phenotype in dissociated hippocampal neurons using an in vitro model of status epilepticus (SE) (Deshpande et al., 2007; Pal et al., 1999). […]

T1 sequence (P19493 21-902 isoform P19493-2 limits assumed): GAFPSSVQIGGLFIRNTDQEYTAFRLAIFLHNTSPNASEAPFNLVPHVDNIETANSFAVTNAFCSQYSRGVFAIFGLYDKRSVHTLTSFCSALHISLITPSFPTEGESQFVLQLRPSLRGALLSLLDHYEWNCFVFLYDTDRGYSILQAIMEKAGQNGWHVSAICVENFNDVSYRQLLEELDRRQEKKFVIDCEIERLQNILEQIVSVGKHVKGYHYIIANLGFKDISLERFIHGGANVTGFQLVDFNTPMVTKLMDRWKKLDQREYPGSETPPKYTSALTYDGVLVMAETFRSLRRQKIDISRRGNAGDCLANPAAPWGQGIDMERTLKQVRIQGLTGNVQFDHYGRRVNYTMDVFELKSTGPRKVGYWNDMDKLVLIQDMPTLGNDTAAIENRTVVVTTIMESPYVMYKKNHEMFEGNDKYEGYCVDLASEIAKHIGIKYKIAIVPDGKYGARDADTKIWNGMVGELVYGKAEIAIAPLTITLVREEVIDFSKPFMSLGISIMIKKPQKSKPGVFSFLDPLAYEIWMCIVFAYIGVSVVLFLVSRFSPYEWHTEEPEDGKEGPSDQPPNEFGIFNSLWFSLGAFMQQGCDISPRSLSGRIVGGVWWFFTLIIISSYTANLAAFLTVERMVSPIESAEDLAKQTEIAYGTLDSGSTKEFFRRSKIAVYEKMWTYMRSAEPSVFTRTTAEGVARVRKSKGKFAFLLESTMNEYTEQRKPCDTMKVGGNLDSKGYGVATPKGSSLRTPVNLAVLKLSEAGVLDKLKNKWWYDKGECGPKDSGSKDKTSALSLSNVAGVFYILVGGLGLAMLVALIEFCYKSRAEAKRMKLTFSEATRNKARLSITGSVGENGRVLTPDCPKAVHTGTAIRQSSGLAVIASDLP

Row | Compound | behavioral phenotype in mice [1] | reduction from control charge transfer [2] | charge transfer during bursts of AMPA receptor-mediated synaptic events as a percent of the charge transfer during the control period [2] | remaining activity at 30 µM [4] | inhibition at 30 µM [4] | other results
1 | O=C(O)C[C@@]12O[C@H]3[C@H](O)[C@H](O)CO[C@H]3C1CN[C@H]2C(=O)O (stereo partly drawn) [IKM-86] | hypoactive phenotypes similar to cataleptic states; also recorded: marked hypoactivity and immobility | 42±8% | 58±8% | 81 ± 2% | 19 ± 2% | persistence of reduction in action potential firing frequency after removal of compound [3]: prolonged; action potential firing frequency in presence of compound ([3]; basal (spontaneous) firing): 0.9±0.3 Hz
2 | O=C(O)C[C@@]12O[C@H]3C=CCN[C@H]3C1C(=O)N[C@H]2C(=O)O (stereo partly drawn) [IKM-27] | hypoactive phenotypes similar to cataleptic states | 31±9% | 70±9% | 80 ± 6% | 20 ± 6% | –
3 | CC1=NN=C(c2ccc(N)cc2)c2cc3c(cc2C1)OCO3 [GYKI 52466] | – | – | – | – | – | concentration range inhibiting AMPA receptors [5]: low micromolar range
4 | O=C(O)C[C@@]12O[C@H]3[C@H](O)[C@H](O)CCO[C@H]3C1CN[C@H]2C(=O)O (stereo partly drawn) [IKM-107] | varying degrees of hyperactivity | 39±12% | 62±12% | 95 ± 2% | 5 ± 2% | whole-cell current elicited [6]: 47±11 pA
5 | O=C(O)C[C@@]12O[C@H]3CCCO[C@H]3C1CN[C@H]2C(=O)O (stereo partly drawn) [IKM-110] | varying degrees of hyperactivity | 34±12% | 66±12% | 86 ± 2% | 14 ± 2% | –
6 | O=C(O)C[C@@]12O[C@H]3CCCCO[C@H]3C1CN[C@H]2C(=O)O (stereo partly drawn) [IKM-98] | varying degrees of hyperactivity | 11±14% | 89±14% | 88 ± 2% | 12 ± 2% | whole-cell current elicited [6]: 380±160 pA
7 | Cc1cc(-c2ccc(/N=N/c3ccc4c(S(=O)(=O)[O-])cc(S(=O)(=O)[O-])c(N)c4c3O)c(C)c2)ccc1/N=N/c1ccc2c(S(=O)(=O)[O-])cc(S(=O)(=O)[O-])c(N)c2c1O.[Na+].[Na+].[Na+].[Na+] [EB] | – | – | – | – | – | IC50 ([5]; non-competitive antagonist, Keller et al., 1993, Weigand et al., 1998): high nanomolar-low micromolar range
8 | CNC(=O)N1N=C(c2ccc(N)cc2)c2cc3c(cc2CC1C)OCO3 (stereo not drawn) [GYKI 53655] | – | – | – | – | – | concentration range inhibiting AMPA receptors [5]: low micromolar range
9 | N#Cc1cc2c(cc1[N+](=O)[O-])=NC(=O)C(=O)N=2 [CNQX, 6-cyano-7-nitroquinoxaline-2,3-dione, reference compound] | – | – | – | – | – | AP firing frequency in SE condition with compound [7]: 1.2±0.4 Hz
